Assay results taken from patent US6458840B2, “Use of valproic acid analog for the treatment and prevention of migraine and affective illness” (American Biogenetic Sciences, Inc., priority 1998, dated 2002).

Columns and labels:
PTZ induced seizures = conditions: literature / earlier application; cited from earlier work
[1] = test system: amygdala-kindled seizures; conditions: rats; cited from earlier work
[2] = test system: amygdala-kindled seizures; experiment: Amygdala-kindling in fully kindled rats (anti-seizure effects); format: in vivo, rat; conditions: 100 mg/kg
Description: For implantation of stimulation and recording electrodes, rats were anesthetized with chloral hydrate (360 mg/kg i.p.) and received stereotaxic implantation (according to the surgery methods described in the atlas of Paxinos and Watson [1986]) of one bipolar electrode in the right basolateral amygdala. Coordinates for electrode implantation were AP-2.2 mm, L-4.8 mm, V-8.5 mm. All coordinates were measured from bregma. Skull screws served as the indifferent reference electrode. The electrode assembly was attached to the skull by dental acrylic cement. After a postoperative period of 2 weeks, constant current stimulations (500 μA, 1 ms, monophasic square-wave pulses, 50/s for 1 s) were delivered to the amygdala at intervals of 1/day until ten stage 5 seizures were elicited. The electrical susceptibility of the stimulated region (threshold for induction of afterdischarges) was recorded on the first day of the experiment (initial afterdischarge threshold) as well as after kindling acquisition (with an interval of at least 4 days after the tenth stage 5 seizure) using an ascending staircase procedure. The initial current intensity was 1 OμA, and the current intensity was increased in steps of about 20% of the previous current at intervals of 1 min until an afterdischarge of at least 3 s duration was elicited. […] In addition to afterdischarge threshold, the following parameters of kindled seizures were measured in fully-kindled rats after stimulation with the afterdischarge threshold current: seizure severity was classified according to Racine (1972): 1 -immobility, eye closure, twitching of vibrissae, sniffing, facial clonus; 2-head nodding associated with more severe facial clonus; 3-clonus of one forelimb; 4-rearing, often accompanied by bilateral forelimb clonus; 5-rearing with loss of balance and falling accompanied by generalized clonic seizures. Seizure duration 1 (SD 1) was the duration of limbic (stage 1-2) and/or motor seizures (stage 3-5). Seizure duration 2 (SD 2) included the time of limbic and/or motor seizures plus the adjacent time of immobility. Afterdischarge duration 1 (ADD 1) was the time of spikes in the EEG recorded from the site of stimulation with a frequency of at least 1 /s. Afterdischarge duration 2 (ADD 2) was the total time of spikes occurring in the EEG including those, which followed the ADD 1 with lower frequency and amplitude.
The anti-seizure effects of 2-propyl-4-hexynoic acid and valproate in fully kindled rats were determined in a group of 8-9 rats (no. 784, 785, 787, 788, 789, 790 [had to be taken out of the trial, because of loss of electrodes], 791, 792, 793) with reproducible stage 5 seizures.
Drugs were injected 15 min prior to stimulation intraperitoneally. Control experiments were always performed 2-3 days before each drug experiment. For control determinations, rats received i.p. injections of vehicle (saline) with the pretreatment time of the respective drug experiment. For all drug experiments, at least 4 days were interposed between 2 drug injections in order to avoid alterations in drug potency due to cumulation or tolerance.
The significance of differences between pre-drug control recordings and recordings after drug injection was calculated by the Wilcoxon signed rank test for paired replicates (SigmaStat for Windows, version 1.0).

Rectal body temperature = format: in vivo, rat; conditions: 100 mg/kg; 13′ post appl.; mean of 8 rats; ante appl. 38.71
Description: Female Wistar rats (Harlan-Winkelmann, Borchen, Germany) were obtained at an age of 11-12 weeks (body weight 180-200 g). Female rats were employed because they are known to eliminate drugs less rapidly than do males, which was thought to be an advantage for drug potency studies. Rats were kept separately in plastic cages at controlled temperature (23° C.) and humidity (about 50 %) with a 12-h light cycle beginning at 7 a.m. They received standard diet (Altromin; Lage, F.R.G.), tap water and libitum. All drug injections were done in the afternoon at an ambient temperature of 23-25° C. The regular protocol started by taking the rats out of their individual cage, weighing them and joining them together on a table with six open plastic cages for better behavioral observations. Therefore animals were able to move from one cage to another and either to have social contact or to avoid it. After a short adaptation time of approximately 15 minutes, rectal body temperatures were recorded followed by drug or vehicle application.
(§1) Tests included open field observations, rotarod test and body temperature. Tests were always performed in the same manner in control and drug experiments at two different times, just before application of drug or vehicle and 13 minutes after application.
In addition to these quantitative estimations of neurological deficit, behavioral alterations observed after administration of 2-propyl-4-hexynoic acid and valproate noted in the cage and by placing the animals in an open field of 90-100 cm diameter. Muscle tone was estimated by palpation of the abdomen. The extent of deficits in behavior after administration of the compounds was determined by a rating system (Loscher et al. 1987). In short, animals were taken out of the cage, placed in an open field, observed for about 1 minute and rated separately for ataxia, abducted hindlimbs, reduced righting, flat body posture, circling, Straub tail, piloerection, hypolocomotion and hyperlocomotion (abdominal muscle tone was evaluated by palpation at the end of the period of observation). All other parameters except ataxia were scored from 0 to 3: 0-absent; 1-equivocal; 2-present; 3- intense. For ataxia (06): 1 -slight ataxia in hind-legs (tottering of the hind quarters); 2-more pronounced ataxia with dragging of hind legs; 3-further increase of ataxia and more pronounced dragging of hind legs; 4-marked ataxia, animals lose balance during forward locomotion; 5- very marked ataxia with frequent loss of balance during forward locomotion; 6-permanent loss of righting reflexes, but animal still attempts to move forward. Rectal body temperature was measured by an electronic thermometer. Body weight of the animals was recorded once daily before drug injection. Significance of differences in behavior between pre-drug and post-drug data determined in the same group of animals was calculated by the Wilcoxon signed rank test for paired replicates and for body temperature by Student's paired t-test (SigmaStat for Windows, version 1.0). Differences in body temperature were always compared only within the experimental day with the pre-drug time as control to one post-drug time.

[3] = Rotarod test (neurological deficit) in kindled rats; format: in vivo, rat; conditions: 100 mg/kg; 13′; all 8 animals +
Description: as §1
The rotarod test was carried out with a rod of 6 cm diameter and rotation speed of 8 r.p.m. Neurological deficit was indicated by inability of the animals to maintain their equilibrium for at least 1 min on the rotating rod. Rats had to be trained prior to drug experiments to maintain their balance on the rod. After drug or vehicle treatment, rats which were not able to maintain their equilibrium on the rod for 1 minute were put again on the rod twice.

NC(=O)N1c2ccccc2C=Cc2ccccc21 [carbamazepine]
antiepileptic effect in PTZ test, in words (PTZ induced seizures): less effective
effect on complete, late-stage or spontaneous kindled seizures, in words [1]: suppresses complete amygdala-kindled seizures
effect on development / early stages of kindled seizures, in words [1]: ineffective in preventing their development

CN1C(=O)CN=C(c2ccccc2)c2cc(Cl)ccc21 [Diazepam]
effect on complete, late-stage or spontaneous kindled seizures, in words [1]: not effective during the late stages
effect on development / early stages of kindled seizures, in words [1]: effective in inhibiting the earlier stages of seizure development

O=C1NC(=O)C(c2ccccc2)(c2ccccc2)N1 [Phenytoin]
effect on complete, late-stage or spontaneous kindled seizures, in words [1]: effective block of spontaneous seizures
effect on development / early stages of kindled seizures, in words [1]: not seizures elicited during the early stages of kindling

CC#CCC(CCC)C(=O)O (stereo not drawn) [2-propyl-4-liexynoic acid]
afterdisch.thresh. (ADT; μA) ([2]; mean (X) of 8 kindled rats, control mean 48.50): 126.25 μA
seizure severity (SS; score) ([2]; mean of 8 rats, control mean 5.00): 3.63 score
seizure duration1 (SD1; sec) ([2]; mean of 8 rats, control mean 83.00): 46.50 s
afterdisch.dur.1 (ADD1;sec) ([2]; mean of 8 rats, control mean 86.00): 62.75 s
afterdisch.dur.2 (ADD2; sec) ([2]; mean of 8 rats, control mean 86.88): 62.75 s
seizure duration2 (SD2; sec) ([2]; mean of 8 rats, control mean 258.75): 105.63 s
BODY TEMP. (° C.) day of exper. 13′ post appl. (Rectal body temperature): 38.31 °C
rotarod-test, day of exper. [3]: 0%
